Assay results: patent US4650801A, “Anti-cancer compositions for delivering 5-fluorouracil” (Taiho Pharmaceutical Company, Ltd., priority 1978, dated 1987)
Where two headings read alike, the source gives them in different places.

Legend:
sarcoma 180 = type: in vivo
Protocol: (§1) The anti-cancer compositions of this invention are tested in mice by the following methods to determine acute toxicity, anti-cancer effect and therapeutic index
(§2) Male mice of ICR strain weighing 22±1 g are used, 5 mice in each group. A 5-fluorouracil (a) and uracil derivative (b) in the proportions listed in Tables 1-16 are suspended in a 5% solution of gum arabic to prepare a suspension, which is forcibly orally administered to each mouse through a tube at a dose of 1 ml/100 g. Over the following period of three weeks the mice are checked every day for poisoning, body weight and mortality. The LD50 is determined according to the up-and-down method 3 weeks after the administration.
Tissues of sarcoma 180, 2×10^6, are subcutaneously transplanted in the back of male mice of ICR strain (6 mice in each group). A 5-fluorouracil (a) and uracil derivative (b) in the proportions listed in Tables 1-16 are suspended in a 5% solution of gum arabic to prepare a suspension. Twenty-four hours after the transplantation and during the following seven consecutive days the suspension is orally given to the animal once every day.
The LD50 and ED50 values obtained above are used to determine the therapeutic index (LD50 /ED50).

in vivo = conditions: mouse, in vivo, po
Protocol: as §1, §2

male mice of ICR strain = assay: in vivo; conditions: 30240 min
Protocol: as §1, §2

[1] = (b) = 1(2-Tetrahydrofuryl)uracil, (b)/(a) mol ratio 1
[2] = (b) = 1(2-Tetrahydrofuryl)uracil, (b)/(a) mol ratio 2
[3] = (b) = 1(2-Tetrahydrofuryl)uracil, (b)/(a) mol ratio 5
[4] = (b) = 1Acetyluracil, (b)/(a) mol ratio 1
[5] = (b) = 1Acetyluracil, (b)/(a) mol ratio 2
[6] = (b) = 1Acetyluracil, (b)/(a) mol ratio 5
[7] = (b) = 1Cyclohexylcarbamoyluracil, (b)/(a) mol ratio 0.5
[8] = (b) = 1Cyclohexylcarbamoyluracil, (b)/(a) mol ratio 2
[9] = (b) = 1Cyclohexylcarbamoyluracil, (b)/(a) mol ratio 5
[10] = (b) = 1n-Hexylcarbamoyluracil, (b)/(a) mol ratio 1
[11] = (b) = 1n-Hexylcarbamoyluracil, (b)/(a) mol ratio 2
[12] = (b) = 1n-Hexylcarbamoyluracil, (b)/(a) mol ratio 10
[13] = (b) = 2'-Deoxycytidine, (b)/(a) mol ratio 1
[14] = (b) = 2'-Deoxycytidine, (b)/(a) mol ratio 2
[15] = (b) = 2'-Deoxycytidine, (b)/(a) mol ratio 10
[16] = (b) = 2'-Deoxyuridine, (b)/(a) mol ratio 1
[17] = (b) = 2'-Deoxyuridine, (b)/(a) mol ratio 2
[18] = (b) = 2'-Deoxyuridine, (b)/(a) mol ratio 20
[19] = (b) = 3Benzoyluracil, (b)/(a) mol ratio 1
[20] = (b) = 3Benzoyluracil, (b)/(a) mol ratio 2
[21] = (b) = 3Benzoyluracil, (b)/(a) mol ratio 10
[22] = (b) = 5Bromo-2'-deoxyuridine, (b)/(a) mol ratio 0.5
[23] = (b) = 5Bromo-2'-deoxyuridine, (b)/(a) mol ratio 2
[24] = (b) = 5Bromo-2'-deoxyuridine, (b)/(a) mol ratio 10
[25] = (b) = 5Bromouracil, (b)/(a) mol ratio 0.5
[26] = (b) = 5Bromouracil, (b)/(a) mol ratio 2
[27] = (b) = 5Bromouracil, (b)/(a) mol ratio 10
[28] = (b) = 5Iodouracil, (b)/(a) mol ratio 1
[29] = (b) = 5Iodouracil, (b)/(a) mol ratio 2
[30] = (b) = 5Iodouracil, (b)/(a) mol ratio 5
[31] = (b) = Cytidine, (b)/(a) mol ratio 2
[32] = (b) = Cytidine, (b)/(a) mol ratio 10
[33] = (b) = Cytosine, (b)/(a) mol ratio 10
[34] = (b) = Orotic acid, (b)/(a) mol ratio 1
[35] = (b) = Orotic acid, (b)/(a) mol ratio 2
[36] = (b) = Orotic acid, (b)/(a) mol ratio 20
[37] = (b) = Thymidine, (b)/(a) mol ratio 0.5
[38] = (b) = Thymidine, (b)/(a) mol ratio 2
[39] = (b) = Thymidine, (b)/(a) mol ratio 10
[40] = (b) = Thymine, (b)/(a) mol ratio 0.5
[41] = (b) = Thymine, (b)/(a) mol ratio 2
[42] = (b) = Thymine, (b)/(a) mol ratio 10
[43] = (b) = Uridine, (b)/(a) mol ratio 1
[44] = (b) = Uridine, (b)/(a) mol ratio 2
[45] = (b) = Uridine, (b)/(a) mol ratio 20

SMILES: O=c1[nH]cc(F)c(=O)n1C1CCCO1 (stereo not shown) [Compound 6, 3-(2-Tetrahydrofuryl)-5-fluorouracil]
- Therapeutic Index (LD50/ED50) (sarcoma 180; [1]): 17.1
- Therapeutic Index (LD50/ED50) (sarcoma 180; [2]): 22.4
- Therapeutic Index (LD50/ED50) (sarcoma 180; [3]): 29.7
- Therapeutic Index (LD50/ED50) (sarcoma 180; [4]): 21.9
- Therapeutic Index (LD50/ED50) (sarcoma 180; [5]): 18.0
- Therapeutic Index (LD50/ED50) (sarcoma 180; [6]): 15.4
- Therapeutic Index (LD50/ED50) (sarcoma 180; [7]): 15.1
- Therapeutic Index (LD50/ED50) (sarcoma 180; [8]): 15.1
- Therapeutic Index (LD50/ED50) (sarcoma 180; [9]): 17.5
- Therapeutic Index (LD50/ED50) (sarcoma 180; [10]): 15.7
- Therapeutic Index (LD50/ED50) (sarcoma 180; [11]): 20.6
- Therapeutic Index (LD50/ED50) (sarcoma 180; [12]): 16.8
- Therapeutic Index (LD50/ED50) (sarcoma 180; [13]): 15.7
- Therapeutic Index (LD50/ED50) (sarcoma 180; [14]): 17.9
- Therapeutic Index (LD50/ED50) (sarcoma 180; [15]): 20.0
- Therapeutic Index (LD50/ED50) (sarcoma 180; [16]): 15.9
- Therapeutic Index (LD50/ED50) (sarcoma 180; [17]): 18.8
- Therapeutic Index (LD50/ED50) (sarcoma 180; [18]): 20.2
- Therapeutic Index (LD50/ED50) (sarcoma 180; [19]): 18.3
- Therapeutic Index (LD50/ED50) (sarcoma 180; [20]): 20.7
- Therapeutic Index (LD50/ED50) (sarcoma 180; [21]): 17.9
- Therapeutic Index (LD50/ED50) (sarcoma 180; [22]): 13.1
- Therapeutic Index (LD50/ED50) (sarcoma 180; [23]): 15.9
- Therapeutic Index (LD50/ED50) (sarcoma 180; [24]): 14.0
- Therapeutic Index (LD50/ED50) (sarcoma 180; [25]): 19.1
- Therapeutic Index (LD50/ED50) (sarcoma 180; [26]): 22.1
- Therapeutic Index (LD50/ED50) (sarcoma 180; [27]): 19.6
- Therapeutic Index (LD50/ED50) (sarcoma 180; [28]): 18.0
- Therapeutic Index (LD50/ED50) (sarcoma 180; [29]): 22.4
- Therapeutic Index (LD50/ED50) (sarcoma 180; [30]): 17.6
- Therapeutic Index (LD50/ED50) (sarcoma 180; (b) = Cytidine, (b)/(a) mol ratio 1): 17.6
- Therapeutic Index (LD50/ED50) (sarcoma 180; [31]): 23.8
- Therapeutic Index (LD50/ED50) (sarcoma 180; [32]): 22.7
- Therapeutic Index (LD50/ED50) (sarcoma 180; (b) = Cytosine, (b)/(a) mol ratio 1): 18.2
- Therapeutic Index (LD50/ED50) (sarcoma 180; (b) = Cytosine, (b)/(a) mol ratio 2): 24.9
- Therapeutic Index (LD50/ED50) (sarcoma 180; [33]): 26.6
- Therapeutic Index (LD50/ED50) (sarcoma 180; [34]): 14.8
- Therapeutic Index (LD50/ED50) (sarcoma 180; [35]): 15.9
- Therapeutic Index (LD50/ED50) (sarcoma 180; [36]): 17.5
- Therapeutic Index (LD50/ED50) (sarcoma 180; [37]): 14.4
- Therapeutic Index (LD50/ED50) (sarcoma 180; [38]): 14.1
- Therapeutic Index (LD50/ED50) (sarcoma 180; [39]): 10.7
- Therapeutic Index (LD50/ED50) (sarcoma 180; [40]): -17.3
- Therapeutic Index (LD50/ED50) (sarcoma 180; [41]): 19.9
- Therapeutic Index (LD50/ED50) (sarcoma 180; [42]): 23.1
- Therapeutic Index (LD50/ED50) (sarcoma 180; [43]): 22.0
- Therapeutic Index (LD50/ED50) (sarcoma 180; [44]): 26.3
- Therapeutic Index (LD50/ED50) (sarcoma 180; [45]): 20.6
- Therapeutic Index (LD50/ED50) (sarcoma 180; (b)/(a) mol ratio 0 (alone)): 13.1
- LD50 at 504 h (in vivo; [1]): 874 mg/kg
- LD50 at 504 h (in vivo; [2]): 650 mg/kg
- LD50 at 504 h (in vivo; [3]): 535 mg/kg
- LD50 at 504 h (in vivo; [4]): 702 mg/kg
- LD50 at 504 h (in vivo; [5]): 468 mg/kg
- LD50 at 504 h (in vivo; [6]): 246 mg/kg
- LD50 at 504 h (in vivo; [7]): 833 mg/kg
- LD50 at 504 h (in vivo; [9]): 576 mg/kg
- LD50 at 504 h (in vivo; [10]): 928 mg/kg
- LD50 at 504 h (in vivo; [11]): 844 mg/kg
- LD50 at 504 h (in vivo; [12]): 469 mg/kg
- LD50 at 504 h (in vivo; [13]): 928 mg/kg
- LD50 at 504 h (in vivo; [14]): 843 mg/kg
- LD50 at 504 h (in vivo; [16]): 845 mg/kg
- LD50 at 504 h (in vivo; [17]): 790 mg/kg
- LD50 at 504 h (in vivo; [18]): 525 mg/kg
- LD50 at 504 h (in vivo; [19]): 768 mg/kg
- LD50 at 504 h (in vivo; [20]): 663 mg/kg
- LD50 at 504 h (in vivo; [21]): 448 mg/kg
- LD50 at 504 h (in vivo; [22]): 640 mg/kg
- LD50 at 504 h (in vivo; [23]): 478 mg/kg
- LD50 at 504 h (in vivo; [24]): 308 mg/kg
- LD50 at 504 h (in vivo; [25]): 745 mg/kg
- LD50 at 504 h (in vivo; [26]): 575 mg/kg
- LD50 at 504 h (in vivo; [27]): 412 mg/kg
- LD50 at 504 h (in vivo; [28]): 467 mg/kg
- LD50 at 504 h (in vivo; [30]): 194 mg/kg
- LD50 at 504 h (in vivo; [31]): 928 mg/kg
- LD50 at 504 h (in vivo; [32]): 773 mg/kg
- LD50 at 504 h (in vivo; [33]): 639 mg/kg
- LD50 at 504 h (in vivo; [35]): 969 mg/kg
- LD50 at 504 h (in vivo; [36]): 806 mg/kg
- LD50 at 504 h (in vivo; [37]): 963 mg/kg
- LD50 at 504 h (in vivo; [38]): 886 mg/kg
- LD50 at 504 h (in vivo; [39]): 639 mg/kg
- LD50 at 504 h (in vivo; [40]): 830 mg/kg
- LD50 at 504 h (in vivo; [41]): 537 mg/kg
- LD50 at 504 h (in vivo; [42]): 324 mg/kg
- LD50 at 504 h (in vivo; [43]): 945 mg/kg
- LD50 at 504 h (in vivo; [44]): 815 mg/kg
- LD50 at 504 h (in vivo; [45]): 597 mg/kg
- LD50 (male mice of ICR strain; [8]): 694 mg/kg
- LD50 (male mice of ICR strain; [15]): 680 mg/kg
- LD50 (male mice of ICR strain; [29]): 380 mg/kg
- LD50 (male mice of ICR strain; [34]): 1020 mg/kg
